Source: US20060009433A1, “Neuroprotective spirostenol pharmaceutical compositions” (priority 2003, published 2006)
“Also recorded” adds a separate entry of the source.

Experiments:
NT2 cells [1] = assay: NT2 cell differentiation, phase-contrast morphology; format: cell-based, human; conditions: 25 μM; 3, 6 and 12 days (comparators 6 days)
NT2 cells [2] = assay: BrdU assay, NT2 cell proliferation; format: cell-based, human
NT2 cells [3] = assay: LDH and MTT assays, NT2 cell viability; conditions: LDH and MTT; 25-50 μM; 3-day treatment
rat PC12 neuronal cells = assay: MTT assay, Aβ1-42-induced cytotoxicity in PC12 cells (Example I); conditions: MTT; for neuroprotective effect against Aβ-induced neurotoxicity: Aβ1-42
[4] = test system: PC12 cells (rat pheochromocytoma neurons); assay: MTT cytotoxicity assay, Aβ-induced neurotoxicity in PC12 cells (Example II); format: cell-based
Description: (§1) PC12 cells (rat pheochromocytoma neurons) from ATCC (Manassas, Va.) were cultured at 37° C. and 5% CO2 in RPMI 1640 medium devoid of glutamine and supplemented with 10% fetal bovine serum and 5% horse serum. Yao Z, Drieu K and Papadopoulos V., The Gingko biloba extract EGb 761 rescues PC12 neuronal cells from β-amyloid-induced cell death by inhibiting the formation of (3-amyloid-derived diffusible neurotoxic ligands, Brain Res, 889, 181-190 (2001). Cells were seeded in 96-well plates (8×10^4 cells/well). After an overnight period of incubation, increasing concentrations of aggregated Aβ (0.1, 1 and 10 μM) were added to the cells in the presence or absence of the indicated concentrations of the SP compounds to be tested. After 72-hours incubation time various parameters, markers of cell viability, were determined. Mouse MA-10 tumor Leydig cells were maintained at 37° C. in DMEM/Ham's F12 (Biofluids, Rockville, Md.) medium supplemented with 5% heat-inactivated fetal calf serum and 2.5% horse serum in 5% CO2. Cells were plated on 96-well plates at the density of 2.5×10^4 cells/well for overnight. The cells were stimulated with the indicated concentrations of the various SP compounds in 0.2 ml/well serum-free medium for 2 hours. The culture medium was collected and tested for progesterone production by radioimmunoassay.
The cellular toxicity of Aβ was assessed using the 3-(4,5-dimethylthiazol-2-yl)-2,5-diphenyl tetrazolium bromide (MTT) assay (Trevigen, Gaithersburg, Md.). Briefly, 10 μl of the MTT solution were added to the cells cultured in 100 μl medium. After an incubation period of 4 hours, 100 μl of detergent were added and cells were incubated overnight at 37° C. Formazan blue formation was quantified at 600 nm and 690 nm using the Victor quantitative detection spectrophotometer (EGG-Wallac, Gaithersburg, Md.) and the results expressed as (DO600-DO690). […] Liu Y and Schubert D, Steroid hormones block amyloid fibril-induced 3-(4,5-dimethylthiazol-2-yl)-2,5-diphenyltetrazolium bromide (MTT) formazan exocytosis: relationship to neurotoxicity, J. Neurochem., 19, 1639-1662 (1998). For that reason, additional cytotoxicity and cell viability assays were used.
Yao et al., J. Neurochem., 83, 1110-1119 (2002); and Yao et al., The Gingko biloba extract EGb 761 rescues PC12 neuronal cells from β-amyloid-induced cell death by inhibiting the formation of β-amyloid-derived diffusible neurotoxic ligands, Brain Res., 889, 181-190 (2001). To stay close to the concentrations of Aβ present in AD brain, 0.1-10 μM concentrations of Aβ were used. The compounds tested for their neuroprotective properties were examined at 30 and 50 μM concentrations (FIGS. 9-15).

PC12 cells [5] = assay: Membrane potential (CytoLite luminescence) in Aβ-treated PC12 cells; format: cell-based, rat; conditions: 10 μM Aβ
Description: as §1
Cells viability was also assessed using the luminescence-based kit CytoLite™ (Packard BioScience Co.) according to the recommendations of the manufacturer. Briefly, cells were cultured and treated in 96-well plates and after 72-hours incubation time, 25 μl of Activator solution was added to the cells followed by 150 μl of Amplifier solution. Luminescence was measured on a TopCount NXT™ counter (Packard BioSciences Co.) following a 5 minute precount delay.

PC12 cells [6] = assay: Cellular ATP levels (ATPLite-M) in Aβ-treated PC12 cells; format: cell-based, rat; conditions: 0.1 and 1.0 μM Aβ
Description: as §1
Cellular ATP concentrations were measured using the ATPLite-M™ luminescence assay (Packard BioSciences Co.). For this assay, cells were cultured on black 96-well ViewPlate™ and the ATP concentrations were measured on a TopCount NXT™ counter (Packard BioSciences Co.) following the recommendations of the manufacturer.

PC12 cells [7] = assay: Trypan blue uptake, Aβ-treated PC12 cells (Example II); format: cell-based, rat
Description: as §1, with “The cells were stimulated with the indicated concentrations of the various SP compounds in 0.2 ml/well serum-free medium for 2 hours. The culture medium was collected and tested for progesterone production by radioimmunoassay.” left out
Cell viability was measured using the trypan blue exclusion method as we previously described. […] After washing three times with PBS, 0.1 N NaOH was added to the cells and trypan blue was quantified using the Victor quantitative detection spectrophotometer at 450 nm.

[8] = test system: MA-10 mouse tumor Leydig cells; assay: Steroid (progesterone) formation in MA-10 Leydig cells; format: in vitro ADME; conditions: MA-10 cells, 2 hours
Description: as §1, with “The cells were stimulated with the indicated concentrations of the various SP compounds in 0.2 ml/well serum-free medium for 2 hours. The culture medium was collected and tested for progesterone production by radioimmunoassay.” left out
Progesterone production by MA-10 cells was measured by radioimmunoassay using anti-progesterone antisera (ICN, Costa Mesa, Calif.), following the conditions recommended by the manufacturer. […] Radioimmunoassay data was analyzed using the MultiCalc software (EG&G Wallac, Gaithersburg, Md.). […]

Aβ [9] = target: T1, Aβ (Homo sapiens, UniProt P05067); assay: CPBBA displacement of radiolabeled 22R-hydroxycholesterol from Aβ (Example II); format: binding; conditions: 100 μM unlabeled compound; 50 μM Aβ
T1 construct: Aβ1-42 peptide was purchased from American Peptide Co; purchased American Peptide Co. (Sunnyvale, Calif.)
Description: At the end of the incubation time, samples were separated by 1.5% agarose (Type I-B) gel electrophoresis under native conditions and transferred to nitrocellulose membrane (Schleicher&Schuell, Keene, N.H.) in 10×SSC buffer. The membrane was exposed to tritium-sensitive screen and analyzed by phosphoimaging using the Cyclone Storage phosphor system (Packard BioScience). Image-densitometric analysis was performed using the OptiQuant software (Packard BioScience). […] Low molecular weight unincorporated 22R-hydroxycholesterol and derivatives are separated and eliminated during electrophoresis.

Aβ [10] = target: T1, Aβ; assay: Immunoblot analysis of Aβ polymerization and ADDL formation; format: biochemical; conditions: SP233 1, 10, 100 μM
Description: Increasing concentration of Aβ (0.1, 1 and 10 μM) were incubated in PC12 culture medium for 24 hours and 72 hours at 37° C. under 5% CO2 with or without increasing concentrations of SP233 (1, 10 and 100 μM). At the end of the incubation time, samples were separated by 4-20% Tris-Glycine gel electrophoresis (Invitrogen) under native conditions at 125V for 2 hours and transferred to nitrocellulose membrane (Hybond™ ECL™, Amersham Pharmacia Biotech) at […] for 30 minutes. Non-specific adsorption of the antibodies was blocked by incubating the nitrocellulose in 5% milk. The blots were treated for immunodetection of Aβ species using a polyclonal antibody to Aβ that recognizes a 30 amino acid peptide of the Aβ protein (Zymed Laboratories, San Francisco, Calif.). Membranes were incubated in primary antibody for 1 hour at room temperature at a dilution of 1:2,000. Then, membranes were incubated in the secondary antibody at a dilution of 1:1,000 for 1.5 hours at room temperature. The blots were visualized using the ECL™ Western Blotting Analysis System (Amersham Biosciences). Image-densitometric analysis was performed using the OptiQuant software (Packard BioScience). This method allows for the separation, visualization and identification of Aβ complexes, polymers and ADDLs.

[11] = MTT, compounds at 30 and 50 μM, 72 hours

T1 sequence (P05067 672-713): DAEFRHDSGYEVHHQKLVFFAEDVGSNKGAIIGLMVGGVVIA

CC(C)CC[C@H](O)[C@@H](C)[C@H]1CC[C@H]2[C@@H]3CC=C4C[C@@H](O)CC[C@]4(C)[C@H]3CC[C@]12C [22S-hydroxycholesterol, 5-cholesten-3β, 22S-diol]
effect on NT2 cell morphology (differentiation) (NT2 cells [1]): could not be replicated | NT2 cell proliferation at 25 μM (NT2 cells [2]; 25 μM): significantly inhibited | NT2 cell proliferation at 50 μM (NT2 cells [2]): significantly inhibited | cytotoxicity at high concentrations (NT2 cells [3]): cytotoxic | PC12 cell viability, steroid alone at 100 μM (rat PC12 neuronal cells; 100 μM steroid): neurotoxic | neuroprotective effect against Aβ-induced neurotoxicity (rat PC12 neuronal cells): failed to protect; also recorded: inactive

CCCCCC(=O)O[C@H]1CC[C@@]2(C)C(=CC[C@H]3[C@@H]4C[C@@H]5O[C@@]6(CC[C@H](C)CO6)[C@@H](C)[C@@H]5[C@@]4(C)CC[C@@H]32)C1 [SP233, (22S,25S)-(20S)-spirost-5-en-3β-yl hexanoate]
protection against 0.1 μM Aβ ([4]; 0.1 μM Aβ): 75% | neuroprotective effect compared with SP222 ([4]; MTT, 0.1 μM Aβ): significantly more robust effect than SP222 | neuroprotection against 0.1 μM Aβ-induced neurotoxicity [4, 11]: displayed neuroprotective activity | neuroprotection against 1 μM Aβ-induced neurotoxicity [4, 11]: maintained their neuroprotective properties | neuroprotection against 10 μM Aβ-induced neurotoxicity [4, 11]: kept this property; also recorded: exhibited neuroprotective activity | neuroprotection against Aβ-induced neurotoxicity (structure/activity discussion) ([4]; PC12 cells): the most potent compound | neuroprotection in vitro against Aβ at concentrations as low as ([4]; all assays used): 10 µM | neuroprotective effect against 10 μM Aβ, membrane potential luminescence (PC12 cells [5]): replicated by the raise of the signal | reversal of Aβ-induced decrease in ATP levels (PC12 cells [6]): able to reverse; also recorded: blocked, although in part | dose-dependence of the neuroprotective effect (PC12 cells [7]; FIG. 15, 0.1, 1.0 and 10.0 μM Aβ): dose-dependent | effect on Aβ-induced cell death (trypan blue uptake) (PC12 cells [7]; SP233 at 30 and 50 μM, 0.1, 1 and 10 μM Aβ): inhibited the Aβ-induced cell death | metabolism to final steroid products / steroid formation [8]: could not be metabolized to final steroid products; also recorded: unable to induce steroid formation | displacement of radiolabeled 22R-hydroxycholesterol binding to Aβ (Aβ [9]): 35% | amount of Aβ polymeric species (Aβ [10]): small dose-dependent increase | trimeric and tetrameric ADDLs (Aβ [10]; 10 μM Aβ, 24 and 72 hours): dose-effect relationship is also observed; also recorded: decreased in a dose-dependent manner | amount of Aβ monomeric species (Aβ [10]; 1 and 10 μM Aβ, 24 and 72 hours): decreases in a dose-dependent manner

CC(=O)[C@H]1CC[C@H]2[C@@H]3CC=C4C[C@@H](O)CC[C@]4(C)[C@H]3CC[C@]12C [pregnenolone, 5-pregnen-3β-ol-20-one]
NT2 cell proliferation at 50 μM (NT2 cells [2]): significantly inhibited | cytotoxicity at high concentrations (NT2 cells [3]): cytotoxic | neuroprotective effect against Aβ-induced neurotoxicity (rat PC12 neuronal cells): could not be replicated | PC12 cell viability, steroid alone (rat PC12 neuronal cells; absence of Aβ): toxic to the cells
